Test results: PMC10935098 (Molecules, 2024)
Converted amounts (≈) assume the structure as drawn. Where a SMILES comes first, the peptide text is derived from it. Bridges are numbered along the chain shown (N, C = ends). [ ]: non-standard residue; d: D form.

Key:
[1] = test system: Candida tropicalis (BNCC340288); conditions: BNCC340288, 24 h
[2] = test system: Candida parapsilosis (BNCC336015); conditions: BNCC336015, 24 h
[3] = test system: Bacillus subtilis (BNCC109047); conditions: BNCC109047, 24 h
[4] = test system: Escherichia coli (BNCC336902); conditions: BNCC336902, 24 h
trypsin = conditions: pH 6.8
[5] = test system: erythrocytes of C57BL/6 mice; conditions: 128 µM
in vitro = conditions: serum
Candida tropicalis [6] = type: cell-based
Candida tropicalis [7] = type: cell-based; remark: listed apart in the source
[8] = test system: human hepatocytes (THLE-3)
C57BL/6 mice = conditions: mouse, ip, 10 mg/kg
Bacillus subtilis = type: cell-based

Structure (SMILES)	MIC, C. tropical [1] [µM]	MIC, C. parapsilosis [2] [µM]	MIC, B. subtilis [3] [µM]	MIC, E. coli [4] [µM]	Stability in SIF (trypsin)	Hemolysis [5]	remaining at 4 h (in vitro) [%]	Effect on growth of Candida tropicalis (growth curve) (Candida tropicalis [6])	Bactericidal effect on Candida tropicalis (Candida tropicalis [7])	Fungal counts after 60 min (Candida tropicalis [7])	Reduction of fungal counts (Candida tropicalis [7])	Toxicity on human hepatocyte THLE-3 [8]	Body weight change (C57BL/6 mice; in vivo)	Effect on growth of Bacillus subtilis (growth curve) (Bacillus subtilis)	Cytotoxicity on human hepatocyte THLE-3 [8]	In vivo safety in mice (C57BL/6 mice)
CC(C)C[C@@H]1NC(=O)[C@@H]2CSSC[C@@H](C(N)=O)NC(=O)[C@@H](CCCCN)NC(=O)[C@H](Cc3ccc(O)cc3)NC(=O)[C@@H](CCCCN)NC(=O)[C@H](CSSC[C@H](NC(=O)CN)C(=O)N2)NC(=O)[C@@H](CCCCN)NC(=O)[C@H](CC(C)C)NC(=O)[C@@H](CCCCN)NC1=O [Pep 1] (H-GCCL[dK]L[dK]C[dK]Y[dK]C-NH2; disulfide 2-8, 3-12)	>64	>64	>64	>64	–	–	–	–	–	–	–	–	–	–	–	–
CC(C)C[C@@H]1NC(=O)[C@@H]2CSSC[C@@H](C(N)=O)NC(=O)[C@@H](CCCCN)NC(=O)[C@H](Cc3c[nH]c4ccccc34)NC(=O)[C@@H](CCCCN)NC(=O)[C@H](CSSC[C@H](NC(=O)[C@@H](N)CC(C)C)C(=O)N2)NC(=O)[C@@H](CCCCN)NC(=O)[C@H](CC(C)C)NC(=O)[C@@H](CCCCN)NC1=O [Pep 2] (H-LCCL[dK]L[dK]C[dK]W[dK]C-NH2; disulfide 2-8, 3-12)	>64	>64	>64	>64	–	–	–	–	–	–	–	–	–	–	–	–
CC(C)C[C@@H]1NC(=O)[C@@H]2CSSC[C@@H](C(N)=O)NC(=O)[C@@H](CCCCN)NC(=O)[C@H](CC(C)C)NC(=O)[C@@H](CCCCN)NC(=O)[C@H](CSSC[C@H](NC(=O)[C@@H](N)CC(C)C)C(=O)N2)NC(=O)[C@@H](CCCCN)NC(=O)[C@H](CC(C)C)NC(=O)[C@@H](CCCCN)NC1=O [Pep 3] (H-LCCL[dK]L[dK]C[dK]L[dK]C-NH2; disulfide 2-8, 3-12)	>64	>64	>64	>64	–	–	–	–	–	–	–	–	–	–	–	–
CC(C)C[C@@H]1NC(=O)[C@@H]2CSSC[C@@H](C(N)=O)NC(=O)[C@@H](CCCCN)NC(=O)[C@H](CC(C)C)NC(=O)[C@@H](CCCCN)NC(=O)[C@H](CSSC[C@H](NC(=O)[C@@H](N)CC(C)C)C(=O)N2)NC(=O)[C@H](C)NC(=O)[C@@H](CCCCN)NC(=O)[C@H](CC(C)C)NC(=O)[C@@H](CCCCN)NC1=O [Pep 4] (H-LCCL[dK]L[dK]AC[dK]L[dK]C-NH2; disulfide 2-9, 3-13)	>64	>64	>64	>64	–	–	–	–	–	–	–	–	–	–	–	–
CC(C)C[C@@H]1NC(=O)[C@@H]2CSSC[C@@H](C(N)=O)NC(=O)[C@@H](CCCCN)NC(=O)[C@H](CC(C)C)NC(=O)[C@@H](CCCCN)NC(=O)[C@H](CC(C)C)NC(=O)[C@@H](CCCCN)NC(=O)[C@H](CSSC[C@H](NC(=O)[C@@H](N)CC(C)C)C(=O)N2)NC(=O)[C@@H](CCCCN)NC1=O [Pep 5] (H-LCCL[dK]C[dK]L[dK]L[dK]C-NH2; disulfide 2-6, 3-12)	64 (≈ 89 µg/mL)	128 (≈ 178 µg/mL)	128 (≈ 178 µg/mL)	32 (≈ 44.5 µg/mL)	remained almost entirely intact after 24 h	less than 5%	20	–	–	–	–	–	–	–	–	–
CC(C)C[C@@H]1NC(=O)[C@@H](CCCCN)NC(=O)[C@@H]2CSSC[C@H](NC(=O)[C@H](CC(C)C)NC(=O)[C@@H](CCCCN)NC(=O)[C@@H](CCCCN)NC(=O)[C@@H](N)CC(C)C)C(=O)N[C@@H](CSSC[C@@H](C(N)=O)NC(=O)[C@@H](CCCCN)NC1=O)C(=O)N[C@H](CCCCN)C(=O)N2 [Pep 6] (H-L[dK][dK]LCC[dK]C[dK]L[dK]C-NH2; disulfide 5-8, 6-12)	8 (≈ 11.2 µg/mL)	32 (≈ 45 µg/mL)	64 (≈ 90 µg/mL)	128 (≈ 180 µg/mL)	remained almost entirely intact after 24 h	less than 5%	20	inhibitory effects	significant bactericidal effect	1 × 10^3 cfu/mL	over 1000 fold	little or no toxicity	no significant changes	–	–	–
CC(C)C[C@@H]1NC(=O)[C@H](CCCCN)NC(=O)[C@H](CC(C)C)NC(=O)[C@H](CCCCN)NC(=O)[C@@H]2CSSC[C@H](NC(=O)[C@@H](N)CC(C)C)C(=O)N[C@@H](CSSC[C@@H](C(N)=O)NC(=O)[C@H](CCCCN)NC1=O)C(=O)N[C@@H](CC(C)C)C(=O)N[C@@H](CCCCN)C(=O)N2 [Pep 7] (H-LCCLKCKLKLKC-NH2; disulfide 2-6, 3-12)	64 (≈ 89 µg/mL)	64 (≈ 89 µg/mL)	64 (≈ 89 µg/mL)	>128	nearly fully degraded within one hour	–	–	–	–	–	–	–	–	–	–	–
CC(C)C[C@@H]1NC(=O)[C@@H]2CSSC[C@@H](C(N)=O)NC(=O)[C@@H](CCCNC(=N)N)NC(=O)[C@H](CC(C)C)NC(=O)[C@@H](CCCCN)NC(=O)[C@H](CC(C)C)NC(=O)[C@@H](CCCNC(=N)N)NC(=O)[C@H](CSSC[C@H](NC(=O)[C@@H](N)CC(C)C)C(=O)N2)NC(=O)[C@@H](CCCNC(=N)N)NC1=O [Pep 8] (H-LCCL[dR]C[dR]L[dK]L[dR]C-NH2; disulfide 2-6, 3-12)	8 (≈ 11.8 µg/mL)	8 (≈ 11.8 µg/mL)	16 (≈ 23.6 µg/mL)	128 (≈ 189 µg/mL)	remained almost entirely intact after 24 h	less than 5%	20	inhibitory effects	significant bactericidal effect	1 × 10^3 cfu/mL	over 1000 fold	–	–	inhibitory effects	remarkable cytotoxicity	favorable safety
CC(C)C[C@@H]1NC(=O)[C@H](CCCCN)NC(=O)[C@@H]2CSSC[C@H](NC(=O)[C@H](CC(C)C)NC(=O)[C@H](CCCCN)NC(=O)[C@H](CCCCN)NC(=O)[C@@H](N)CC(C)C)C(=O)N[C@@H](CSSC[C@@H](C(N)=O)NC(=O)[C@H](CCCCN)NC1=O)C(=O)N[C@@H](CCCCN)C(=O)N2 [Pep 9] (H-LKKLCCKCKLKC-NH2; disulfide 5-8, 6-12)	16 (≈ 22.5 µg/mL)	16 (≈ 22.5 µg/mL)	128 (≈ 180 µg/mL)	>128	nearly fully degraded within one hour	–	–	inhibitory effects	–	1 × 10^3 cfu/mL	over 1000 fold	little or no toxicity	–	–	–	–
